The values that follow are results of earlier work, collected in PubChem BioAssay AID1259409 (Chemical Carcinogenesis Research Information System (CCRIS), 2018).

The data set has as its system rodent chemically induced tumor inhibition, incidence and multiplicity. Description: CCRIS tumor inhibitor studies.

SMILES strings stand for the structures.

As to `CC#C[C@]1(O)CC[C@H]2[C@@H]3CCC4=CC(=O)CCC4=C3[C@@H](c3ccc(N(C)C)cc3)C[C@@]21C`, under “Carcinogen: 7,12-Dimethylbenz(a)anthracene (57-97-6), Dose [Inhibitor]: 10 mg administered daily for 28 days, Route [Inhibitor]: Subcutaneous, Species: Rat, Strain/Sex: Sprague-Dawley/Female, Target Tissue: Type of Lesion: Mammary gland: Adenocarcinoma and papillary carcinoma, Dose [Carcinogen]: 10 mg/kg once at 50 days of age, Promoter: None”, the “tumour outcome (control, treated, inhibition, significance)” value is given as 12/13 (92%), 13/14 (93%), 0% ns. On to `COc1cc(C[C@@H](CO)[C@H](CO)Cc2ccc(O)c(OC)c2)ccc1O`, for which the “tumour outcome (control, treated, inhibition, significance)” value (Carcinogen: 7,12-DIMETHYLBENZ[A]ANTHRACENE, 57-97-6, Dose [Inhibitor]: 0, 1.5 MG IN 1 ML OF DISTILLED WATER 1/D FOR 20 WK BEGINNING 1 WK POST CARCINOGEN DOSE (STUDY DURATION: 21 WK), Route [Inhibitor]: GAVAGE, Species: RAT, Strain/Sex: SPRAGUE-DAWLEY/FEMALE, Target Tissue: Type of Lesion: MAMMARY GLAND: TUMOR, Dose [Carcinogen]: 5 MG IN 1 ML CORN OIL ONCE, Promoter: NONE USED) is listed as 26/30 (87%), 23/30 (77%), 11%, not significant.
